Results as given in paper PMC9445041, “Development of a red fluorescent protein-based cGMP indicator applicable for live-cell imaging” (Communications Biology, 2022).

Target: T1, Red cGull (Mus musculus, UniProt Q8CG03)
T1 construct: gene Pde5a; N-terminal mouse APP fragment (aa 190-286) fused for bacterial expression; purified on Ni-NTA from E. coli JM109(DE3)
Assay: fluorescence intensity dose-response, four-parameter logistic fit
Assay type: binding

T1 sequence (Q8CG03 164-298): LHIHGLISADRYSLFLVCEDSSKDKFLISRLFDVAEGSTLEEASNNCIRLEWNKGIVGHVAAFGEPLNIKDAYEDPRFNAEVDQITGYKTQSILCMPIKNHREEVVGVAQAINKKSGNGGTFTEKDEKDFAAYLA

EC50: 330 nM
Structure (SMILES): Nc1nc2c(ncn2[C@@H]2O[C@@H]3COP(=O)(O)O[C@H]3[C@H]2O)c(=O)[nH]1 [cGMP]
